Measured values: patent publication US6995135B2, “Peptides and peptidomimetics having anti-proliferative activity and/or that augment nucleic acid damaging agents or treatments” (priority 2002, dated 2006)
Entries after “also recorded” stand apart in the source; their conditions may differ. Square brackets hold non-standard residues; d marks the D form. Peptide text beside a SMILES is read from it. dPhe(F5) = N[C@H](Cc1c(F)c(F)c(F)c(F)c1F)C(=O)O; dBpa = N[C@H](Cc1ccc(C(=O)c2ccccc2)cc1)C(=O)O; dCha = N[C@H](CC1CCCCC1)C(=O)O

Key:
[1] = system: Jurkat cells; assay: G2 checkpoint abrogation in bleomycin treated Jurkat cells, flow cytometry; assay type: cell-based, human; conditions: Jurkat cells; with 40 μg/ml bleomycine, 24 hours; dose with detectable G2 checkpoint abrogation
Description: Flow cytometry analysis of G2 checkpoint abrogation was performed using human leukemia derived Jurkat cell line. In brief, cultured cells were treated with various doses of peptide/peptidomimetic and 40 μg/ml bleomycine for 24 hr. The DNA of the cells was stained with propidium iodide and analyzed by flow cytometry.
The “Appearance of side effect when used alone” indicates the peptide/peptidomimetic dose that produced Jurkat cell cycle disturbance, i.e., the appearance of significant amounts of SubG1 cells (dead cells) or cells in which the DNA content of each varies more than usual. […] The “G2 abrogating dose” indicates the peptide/peptidomimetic dose with 40 μg/ml bleomycine that produced detectable G2 checkpoint abrogation activity following treatment for 24 hours. The “Appearance of side effect when used with colchicine” indicates the peptide/peptidomimetic dose with 5 μg/ml colchicine that produced Jurkat cell cycle disturbance following treatment for 24 hours.

[2] = system: Jurkat cells; assay: M phase checkpoint abrogation / non specific toxicity in colchicine treated Jurkat cells, flow cytometry; assay type: cell-based; conditions: 0.5 μg/ml colchicine, up to 50 μM of peptide, FIG. 12
Description: Cell-cycle analysis The cell cycle status of the cells treated with bleomycin or adriamcin were analyzed by flow cytometry as described by Kawabe (1997) Nature 385:454–458. In brief, two million cells were re-suspended and incubated in 200 μul Krishan's solution (0.1% Sodium citrate, 50 μg/ml PI, 20 μg/ml RNase A and 0.5% NP-40) for 1 hr at 4° C. and analyzed by a flow cytometry, FACScan™ (Beckton Dickinson, Mountain View, Calif.) with the program CELLQuest™ (Beckton Dickinson).
Flow cytometry analysis of M phase checkpoint abrogation by the compounds was performed using human T cell leukemia Jurkat cell line treated with colchicine (5 μg/ml or 0.5 μg/ml) and various doses of peptide/peptidomimetics for 24 hr (FIG. 12). The DNA of the cells was stained and analyzed by flow cytometry as described above.
The “Appearance of side effect when used alone” indicates the peptide/peptidomimetic dose that produced Jurkat cell cycle disturbance, i.e., the appearance of significant amounts of SubG1 cells (dead cells) or cells in which the DNA content of each varies more than usual. […]
A comparison between G2 checkpoint abrogating activity and non specific toxicity (M checkpoint abrogation) by CB501 was performed. […] The DNA amount in each of the treated cells was analyzed by flow cytometry, as previously described.

[3] = system: HUVEC; assay: G2 checkpoint abrogation with cis-platin, flow cytometry; assay type: cell-based, human; conditions: normal G1 checkpoint, at least up to 50 μM CBP501
Description: The medium was aspirated, fresh medium without these compounds was added and the cells were incubated for an additional 45 hr. The cells including floating cells were harvested using trypsin-EDTA solution, incubated with Krishan's solution and analyzed for DNA content by flow cytometry as previously described.

[4] = system: MIAPaCa2; assay: Sensitization of MIAPaCa2 to bleomycin or adriamycin, % sub-G1 cells by flow cytometry; assay type: cell-based, human; conditions: bleomycine 10 μg/ml or adriamycin 1 μg/ml, 3 hours then 21 hours
Description: Cell culture A human T-cell leukemia-derived cell line, Jurkat, was cultured in RPMI 1640 (Sigma) supplemented with 10% fetal calf serum (IBL: Immuno-Biological Laboratories, Gunma, Japan) at 37° C./5% CO2. Human pancreatic cancer derived cell line, MIAPaCa2 was cultured in DMEM with 10% fetal calf serum at 37° C./5% CO2.
The G2 checkpoint abrogating activity of various compounds at different doses on human pancreatic cancer derived cell line MIAPaCa2 treated with bleomycine (Bleo) or adriamycin (ADR) was studied. Briefly, cells were incubated with the compounds and bleomycine (10 μg/ml) or adriamycin (1 μg/ml) for 3 hours. The medium was changed and incubated for an additional 21 hours. Harvested cells were stained for DNA by propium iodide and analyzed with flow cytometry as previously described. The % of the sub-G1 cell population is indicated as dead cells in FIG. 3.

[5] = Human serum treatment analysis, residual G2 checkpoint abrogating activity; assay type: in vitro ADME; conditions: d-type amino acid peptides compared with l-type peptide such as CBP413
Description: Serum analysis was performed to determine the stability of peptides in mouse and human serum. Briefly, peptides (10 mM or 2.5 mM) were incubated with freshly prepared human serum at 37 degrees for 1 hr. CBP50 (10 mM) was incubated with freshly prepared mouse serum for 1 hr at 37 degree. Jurkat cells were treated with the serum with or without peptides and bleomycin (40 μg/ml) and incubated for 24 hr. The population of G2 phase cells was determined by flow cytometry as previously described. The residual G2 checkpoint abrogating activity of serum treated peptides were determined by comparing the % G2 cells of the treated serum and the standard curve produced with medium treated peptides, bleomycin and Jurkat cells (Table 5A).

[6] = Mouse serum treatment analysis, residual peptide by HPLC; assay type: in vitro ADME; conditions: 1 hr at 37 degree, read-out: Residual peptide after 1 hr human serum treatment (Mouse serum treatment analysis)
[7] = system: MIAPaCa2 human pancreatic carcinoma cells; assay: Colony formation analysis of MIAPaCa2 cells; assay type: cell-based; conditions: CBP501 with cisplatin or oxaliplatin (1, 3 or 9 μg/ml), three hours then 10 days
Description: Briefly, cells were plated at 300 cells/well in 6 well plates, incubated overnight, and treated with the compounds for three hours. The medium was changed and cultured for an additional 10 days. Cells were subsequently fixed with 70% methanol, stained with 0.1% crystal violet and visualized.

[8] = system: HUVEC; assay: Growth of normal human umbilical endothelial cells (HUVEC); assay type: cell-based
Description: Similar studies were performed using normal human umbilical endothelial cells (HUVEC).

[9] = system: MIAPaCa2; assay: Growth inhibition analysis of MIAPaCa2 using alamar blue; assay type: cell-based, human
Description: The medium was changed and incubated an additional 24, 48 or 72 hour. Following incubation, 20 μl of alamarBlue 90% reagent was added to each well for another 6 hours for detection of cell viability by fluorescent intensity. Fluorescent intensity was measured using a Spectrafluor Plus plate reader with exitation 530 nm and emission 590 nm. The IC50 was calculated (Table 6).

[10] = system: MIAPaCa2 human pancreatic carcinoma cells; assay: MIAPaCa2 human pancreatic carcinoma subcutaneous tumor in scid mice; assay type: in vivo, mouse
Description: To study in vivo efficacy of the compounds, MIAPaCa2 human pancreatic carcinoma cells were implanted subcutaneously in scid mice. The treatment was initiated when the size of the primary tumor became 0.1 cm3 (Day0) or larger, e.g., 7 or 8 mm in diameter. CDDP (3 mg/kg) and CBP 501 (10 or 40 mg/kg) were intra-peritoneally administered alone or in combination. Tumor sizes were measured using calipers three times a week, and volumes were calculated using the formula: weight(mg)=[width (mm)2×length (mm)]/2. Mean tumor sizes for each treatment group are plotted (n=4) against the days after the start of treatment (FIG. 10).

[11] = Solubility in water

N=C(N)NCCC[C@@H](NC(=O)[C@@H](CCCNC(=N)N)NC(=O)[C@@H](CCC(N)=O)NC(=O)[C@@H](CCCNC(=N)N)NC(=O)[C@@H](CCCNC(=N)N)NC(=O)[C@@H](CCCNC(=N)N)NC(=O)[C@@H](CC1CCCCC1)NC(=O)[C@@H](Cc1c(F)c(F)c(F)c(F)c1F)NC(=O)[C@@H](CO)NC(=O)[C@@H](Cc1c[nH]c2ccccc12)NC(=O)[C@@H](CO)NC(=O)[C@H](N)Cc1ccc(C(=O)c2ccccc2)cc1)C(=O)O [CBP501, (d-Bpa)(d-Ser)(d-Trp)(d-Ser)(d-Phe-2,3,4,5,6-F)(d-Cha)(d-Arg)(d-Arg)(d-Arg)(d-Gln)(d-Arg)(d-Arg)] (H-[dBpa][dS][dW][dS][dPhe(F5)][dCha][dR][dR][dR][dQ][dR][dR]-OH; N-terminus and C-terminus assumed)
G2 abrogating dose [1]: ≧0.39 μM | Non specific toxicity (M checkpoint abrogation) (in words) [2]: absent; also recorded: does not affect M phase cell cycle arrest and/or non specific toxicity induced by colchicine | Sensitization of HUVEC cells to cisplatin (in words) [3]: not sensitized | Sensitization of MIAPaCa2 cells to bleomycin and adriamycin (% sub-G1, in words) [4]: sensitized MIAPaCa2 cells to both bleomycin and adriamycin in a dose dependent manner | Stability in serum (in words) [5]: more stable in serum | remaining at 1 h, 10 mM [6]: > 90% | Effect on cyto-toxic activity of cisplatin and oxaliplatin, colony formation (in words) [7]: enhanced the cyto-toxic activity of both cisplatin and oxaliplatin | Effect on growth of HUVEC cells, peptide alone (in words) [8]: does not affect the growth of HUVEC cells | Cell growth inhibition alone (in words) ([9]; compared with cisplatin): inhibits cell growth better than cisplatin in molar dose | Cell growth suppression combined with 10 μM of cisplatin (in words) ([9]; with 10 μM cisplatin): suppressed cell growth at a much lower dose | Tumor growth, CBP501 treatment alone (in words) ([10]; CBP501 10 or 40 mg/kg intra-peritoneal): suppresses the growth of human pancreatic cancer cell in vivo | Anti-tumor activity of cisplatin in combination (in words) ([10]; CDDP 3 mg/kg with CBP501 10 or 40 mg/kg intra-peritoneal): increased the anti-tumor activity of cisplatin | Solubility in water (in words) [11]: soluble in water
